Measurements reported in patent publication US10359430B2, “Selective near-infrared optical imaging of necrotic cells and simultaneous cell fixing and counter staining with metallacrown complexes” (THE REGENTS OF THE UNIVERSITY OF MICHIGAN, priority 2015, dated 2019).

Key:
HeLa cells [1] = experiment: NIR epifluorescence microscopy of HeLa cells (necrotic cell labelling, simultaneous staining and fixing); assay type: cell-based, Human; settings: 150 μM complex and 3 μM propidium iodide together, UV light (377 nm) 5 minutes
Description: Cells were seeded in a 8-well Lab Tek Chamber coverglass (Nunc, Dutsher S.A., Brumath, France) at a density of 6×10^4 cells/well and cultured at 37° C. in 5% humidified CO2 atmosphere.
The continued incubation enabled the internalization of the complexes.
All of the previously mentioned incubated HeLa cells were then washed with fresh OPTI-MEM® media and were incubated with 3 μM propidium iodide for 5 minutes. Propidium iodide is a commercially available stain (emitting in the visible range) for necrotic cells, and was used to confirm cell necrosis.
i. 377 nm with 50 nm band-pass filter with 50 nm bandwidth for the excitation and 805 nm long-pass filter 805 nm or 996 nm band-pass filter with 70 nm bandwidth for YbIII emission in the NIR range.
ii. […] for the excitation and 805 nm long-pass filter 805 nm or 996 nm band-pass filter with 70 nm bandwidth for YbIII emission in the NIR range. […]

MSC stem cells = settings: 150 μM, 15 minutes, UV light (377 nm) 8 minutes, further 1 hour; λex 458 nm, λem 499-799 nm
Description: For these confocal microscopy experiments, the HeLa or MSC cells were prepared in the same way as for the epifluorescence microscopy experiments (see Example 1, Short incubation, UV light exposure #1 and #3). […] Complexes were excited with Argon laser at 458 nm and emission signal was collected from 499 nm to 799 nm. During this experiment, a 63× Plan-Apochromat objective was used (2× zoom).

HeLa cells [2] = experiment: NIR epifluorescence microscopy of HeLa cells (necrotic cell labelling, simultaneous staining and fixing); assay type: cell-based, Human; settings: for Colocalization with propidium iodide: then 3 μM PI 5 minutes
[3] = Photophysical properties of the metallacrowns in solid state and in aqueous solutions; assay type: physicochemical
HeLa cells [4] = experiment: Raman spectroscopy of fixed HeLa cells; assay type: cell-based, Human; settings: cells stained and fixed as in Example 1
Description: Raman spectroscopy maps were collected for living HeLa cells, HeLa cells that were fixed with paraformaldehyde (PFA), HeLa cells that were fixed with methanol (MeOH), and HeLa cells that were stained and fixed with Yb^3+[Zn(II)MCpyzHA] using the example method disclosed herein (as described in Example 1).
Cells were seeded in an 8-well Lab Tek Chamber coverglass, as previously described in Example 1. Cells were washed trice with OPTI-MEM® (room temperature) and incubated with 4% PFA solution in PBS (Phosphate Buffered Saline) for 30 minutes at room temperature. […]
To study the changes between the different samples, a background subtraction was applied and the signal was collected in the range of 0-4000 cm^−1 in different cellular structures, cytoplasm and nucleus, allowing to observe the variations of specific vibrations arising from the nucleic acids and proteins, in particular, the CH vibrational bands at 2800-3300 cm^−1 that reflect a distribution of proteins, lipids and carbohydrates in cells and often used to localize cellular organelles, as well as OH band in the range of 3100-3650 cm^−1. […] However, a more detailed analysis of Raman signal is required to fully quantify and identify corresponding peaks in order to completely understand changes in the biomolecular profile observed for the fixation with Yb^3+[Zn(II)MCpyzHA].

HeLa cells [5] = experiment: Confocal microscopy of HeLa cells; assay type: cell-based, Human; settings: 150 μM, 15 minutes, UV light (377 nm) 8 minutes, further 1 hour; λex 458 nm, λem 499-799 nm
HeLa cells [6] = experiment: Cytotoxicity test with Alamar blue; assay type: cell-based, Human; settings: FIG. 6, text says 5 hours, figure legend 24 and 48 hours
Description: In order to determine if the LnZn16(pyz)16MC complexes (Ln^3+Zn(II)MCHAD are toxic for live cells, cytotoxicity tests with Alamar blue were performed.
Alamar blue is viability reagent which functions as a cell health indicator by using the reducing power of living cells to quantitatively measure the proliferation of different human and animal cell lines. This enables the cytotoxicity of different chemical complexes to be determined. The active ingredient of Alamar Blue is resazurin, which is non-toxic and cell permeable compound, and upon entering in the cells, it is reduced to highly fluorescent resorufin.
The cytotoxicity tests were performed with Alamar blue assay (Invitrogen, France). HeLa cells were seeded in 96-well plate at the density of 1*10^4 cells per well and cultured at 37° C. in 5% humidified CO2 atmosphere. After 24 hours of attachment, the cells were incubated with different concentrations of Yb^3+[Zn(II)MCpyzHA] in cell culture medium for 24 and 48 hours followed by incubation with Alamar blue (10% v/v) for 3 to 4 hours at 37° C. in 5% humidified CO2 atmosphere.
Fluorescence of Alamar blue was measured with plate reader (Victor 3V, Perkin Elmer, France), with excitation at 530 nm and emission at 590 nm, for cells incubated with Yb^3+[Zn(II)MCpyzHA] and for untreated cells (control).

[7] = 150 μM, 15 minutes, UV light (377 nm) 8 minutes, further 1 hour

SMILES: O=C([N-][O-])c1cnccn1.O=C([N-][O-])c1cnccn1.O=C([N-][O-])c1cnccn1.O=C([N-][O-])c1cnccn1.O=C([N-][O-])c1cnccn1.O=C([N-][O-])c1cnccn1.O=C([N-][O-])c1cnccn1.O=C([N-][O-])c1cnccn1.O=C([N-][O-])c1cnccn1.O=C([N-][O-])c1cnccn1.O=C([N-][O-])c1cnccn1.O=C([N-][O-])c1cnccn1.O=C([N-][O-])c1cnccn1.O=C([N-][O-])c1cnccn1.O=C([N-][O-])c1cnccn1.O=C([N-][O-])c1cnccn1.O=S(=O)([O-])C(F)(F)F.O=S(=O)([O-])C(F)(F)F.O=S(=O)([O-])C(F)(F)F.[Yb+3].[Zn+2].[Zn+2].[Zn+2].[Zn+2].[Zn+2].[Zn+2].[Zn+2].[Zn+2].[Zn+2].[Zn+2].[Zn+2].[Zn+2].[Zn+2].[Zn+2].[Zn+2].[Zn+2].c1ccncc1.c1ccncc1.c1ccncc1.c1ccncc1.c1ccncc1.c1ccncc1.c1ccncc1.c1ccncc1 [Yb^3+[Zn(II)MCpyzHA]]
- Incubation time after which emission was observed in cells after UV illumination (HeLa cells [1]): 20 min
- Intracellular location (confocal, visible ligand emission) (MSC stem cells): specifically located in nucleus as well as in cytoplasm
- Selectivity of labelling for necrotic cells (HeLa cells [2]; 45 μM, 15 minutes, no UV light exposure (also 150 μM, 12 hours)): going exclusively in necrotic cells
- Specificity of the dye for cell state (HeLa cells [2]; 150 μM complex and 3 μM propidium iodide together, UV light (377 nm) 5 minutes): specific for dead and apoptotic cells
- NIR staining of fixed HeLa cancer cells (cell compartments) (HeLa cells [2]; [7]): operates as a NIR stain for the nucleus as well as for the cytoplasm
- Shape and morphology of stained and fixed cells one month after the procedure (HeLa cells [2]; 150 μM, 15 minutes, UV light (377 nm) 8 minutes, further 1 hour, imaged one month later): maintained the same shape and morphology
- Colocalization with propidium iodide (HeLa cells [2]; [7]): colocalize in the same cell compartments
- Colocalization with propidium iodide (HeLa cells [2]; 150 μM, 12 hours, no UV light): colocalize in the same cell compartment
- Toxicity to the HeLa cell line (HeLa cells [2]; 150 μM, incubation during 12 hours, no UV light exposure): toxic
- τ (luminescence lifetime), D2O ([3]; 200 μM in D2O, room temperature, excitation at 355 nm): 81.3(1) μs
- τ (luminescence lifetime), H2O ([3]; 200 μM in H2O, room temperature, excitation at 355 nm): 5.57(1) μs
- q (number of coordinated water molecules) ([3]; calculated from lifetimes, estimated error ±0.2): 0
- τ (luminescence lifetime), Solid ([3]; solid state, room temperature, excitation at 355 nm): 45.6(3) μs
- Biomolecular profile of fixed HeLa cells compared with PFA and methanol fixation (Raman) (HeLa cells [4]): very similar biomolecular profiles
- Intracellular location (confocal, visible ligand emission) (HeLa cells [5]): specifically located in nucleus as well as in cytoplasm
- Cells remained alive (HeLa cells [6]; 45 μM): approximately 70%
- Concentration from which the complex started to be significantly toxic (HeLa cells [6]): ≥ 45 µM
